Results reported in patent US8637553B2, “Fluoro substituted omega-carboxyaryl diphenyl urea for the treatment and prevention of diseases and conditions” (Bayer Healthcare LLC, priority 2003, dated 2014).

What was measured:
p38 α2 = biological target: T1, p38 α2 (Homo sapiens, UniProt Q16539); experiment: p38 kinase in vitro assay; settings: in vitro kinase biochemical assay
T1 construct: His; made in house; host or cells: E. coli
Procedure: Purified and His-tagged p38 α2 (expressed in E. Coli) was activated in vitro by MMK-6 to a high specific activity. Using a microtiter format, all reactions were conducted in 100 μL volumes with reagents diluted to yield 0.05 μg/well of activated p38 α2 and 10 μg/well of myelin basic protein in assay buffer (25 mM HEPES 7.4, 20 mM MgCl2, 150 mM NaCl). Test compounds (5 μL of a 10% DMSO solution in water) were prepared and diluted into the assay to cover a final concentration range from 5 nM to 2.5 μM. The kinase assay was initiated by addition of 25 μL of an ATP cocktail to give a final concentration of 10 μM cold ATP and 0.2 μCi [gamma-^33P] ATP per well (200-400 dpm/pmol of ATP). The plate was incubated at 32° C. for 35 min., and the reaction quenched with 7 μL of a 1 N aq HCl solution. The samples were harvested onto a P30 Filtermat (Wallac, Inc.) using a TomTec 1295 Harvester (Wallac, Inc.), and counted in a LKB 1205 Betaplate Liquid Scintillation Counter (Wallac, Inc.). Negative controls included substrate plus ATP alone. SW1353 cellular assay: SW1353 cells (human chondro-sarcoma) are seeded (1000 cells/100 μL DMEM 10% FCS/well) into 96-well plates and incubated overnight. […] Cultures are incubated for 48 h at 37° C., then supernatant IL-6 values are determined by ELISA.

pERK in MDA-MB-231 cells = experiment: Bio-Plex phospho-ERK 1/2 immunoassay (basal pERK); assay type: cell-based; settings: Homo sapiens, 2 h incubation
Procedure: A 96 well pERK immunoassay, using laser flow cytometry (Bio-Rad) platform has been established to measure inhibition of basal pERK in breast cancer cell line. MDA-MB-231 cells were plated at 50,000 cells per well in 96 well microtitre plates in complete growth media. For effects of test compounds on basal pERK½ inhibition, the next day after plating, MDA-MB-231 cells were transferred to DMEM with 0.1% BSA and incubated with test compounds diluted 1:3 to a final concentration of 3 μM to 12 nM in 0.1% DMSO. Cells were incubated with test compounds for 2 h, washed, and lysed in Bio-Plex whole cell lysis buffer A. Samples are diluted with buffer B 1:1 (v/v) and directly transferred to assay plate or frozen at −80 C. degrees until processed. 50 μL of diluted MDA-MB-231 cell lysates were incubated with about 2000 of 5 micron Bio-Plex beads conjugated with an anti-ERK½ antibody overnight on a shaker at room temperature. The next day, biotinylated phospho-ERK½ sandwich immunoassay was performed, beads are washed 3 times during each incubation and then 50 μL of PE-strepavidin was used as a developing reagent. The relative fluorescence units of pERK½ were detected by counting 25 beads with Bio-Plex flow cell (probe) at high sensitivity. The IC50 was calculated by taking untreated cells as maximum and no cells (beads only) as background using in an Excel spreadsheet based program.

MDA-MB-231 cells = experiment: MDA-MB231 proliferation assay (CellTiter-Glo); assay type: cell-based; settings: Homo sapiens, 72 hours
Procedure: Human breast carcinoma cells (MDA MB-231, NCI) were cultured in standard growth medium (DMEM) supplemented with 10% heat-inactivated FBS at 37° C. in 5% CO2 (vol/vol) in a humidified incubator. Cells were plated at a density of 3000 cells per well in 90 μL growth medium in a 96 well culture dish. In order to determine T0h CTG values, 24 hours after plating, 100 μL of CellTiter-Glo Luminescent Reagent (Promega) was added to each well and incubated at room temperature for 30 minutes. Luminescence was recorded on a Wallac Victor II instrument. The CellTiter-Glo reagent results in cell lysis and generation of a luminescent signal proportional to the amount of ATP present, which, in turn is directly proportional to the number of cells present.
Test compounds are dissolved in 100% DMSO to prepare 10 mM stocks. […] The cells with and without individual test compounds were incubated for 72 hours at which time ATP dependent luminescence was measured, as described previously, to yield T72h values. Optionally, the IC50 values can be determined with a least squares analysis program using compound concentration versus percent inhibition. % Inhibition=[1−(T72h test−T0h)/(T72h ctrl−T0h)]×100, where T72h test=ATP dependent luminescence at 72 hours in the presence of test compound T72h ctrl=ATP dependent luminescence at 72 hours in the absence of test compound T0h=ATP dependent luminescence at Time Zero

[1] = test system: phospho-PDGFR-beta in aortic smooth muscle cells; experiment: pPDGFR-beta in AoSMC cells; assay type: cell-based; settings: PDGF-BB stimulated
Procedure: 100K P3-P6 Aortic SMC were plated in each well of 12-well cluster in 1000 μL volume/well of SGM-2 using standard cell culture techniques. Next day, cells were rinsed with 1000 μL D-PBS once, then serum starved in 500 μL SBM (smooth muscle cell basal media) with 0.1% BSA overnight. Compounds were diluted at a dose range from (10 μM to 1 nM in 10-fold dilution steps in DMSO. Final DMSO concentration 0.1%). Remove old media by inversion into the sink quickly then add 100 μL of each dilution to corresponding well of cells for 1 h at 37° C. Cells were then stimulated with 10 ng/mL PDGF-BB ligand for 7 min at 37° C. The media is decanted and 150 μL of isotonic lysis buffer with protease inhibitor tablet (Complete; EDTA-free) and 0.2 mM Na vanadate is added. Cells are lysed for 15 min at 4° C. on shaker in cold room. Lysates are put in eppendorf tubes to which 15 μL of agarose-conjugated anti-PDGFR-beta antibody is added and incubated at 4° C. overnight. Next day, beads are rinsed in 50-volumes of PBS three times and boiled in 1×LDS sample buffer for 5 minutes. Samples were run on 3-8% gradient Tris-Acetate gels and transferred onto Nitrocellulose. Membranes were blocked in 1% BSA/TBS-T for 1 hr. before incubation in anti-phospho-PDGFR-b (Tyr-857) antibody in blocking buffer (1:1000 dilution) for 1 h. […]

T1 sequence (Q16539 whole entry): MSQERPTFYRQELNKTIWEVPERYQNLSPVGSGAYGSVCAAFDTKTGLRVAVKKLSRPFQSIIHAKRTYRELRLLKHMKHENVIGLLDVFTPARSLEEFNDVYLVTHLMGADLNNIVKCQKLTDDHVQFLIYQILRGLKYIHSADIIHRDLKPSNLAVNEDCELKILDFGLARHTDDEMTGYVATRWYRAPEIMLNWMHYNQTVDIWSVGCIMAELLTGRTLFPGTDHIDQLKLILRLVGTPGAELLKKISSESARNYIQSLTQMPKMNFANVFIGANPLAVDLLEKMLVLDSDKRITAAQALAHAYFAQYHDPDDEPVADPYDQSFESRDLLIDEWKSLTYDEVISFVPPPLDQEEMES

CNC(=O)c1cc(Oc2ccc(NC(=O)Nc3ccc(Cl)c(C(F)(F)F)c3)c(F)c2)ccn1 [Example 1, 4{4-[3-(4-chloro-3-trifluoromethylphenyl)-ureido]-3-fluorophenoxy}-pyridine-2-carboxylic acid methylamide] gave an IC50 (p38 α2) of 24 nM, an IC50 (pERK in MDA-MB-231 cells) of 22 nM and an IC50 (MDA-MB-231 cells) of 600 nM. For the same compound, the IC50 [1] was 43.6 nM.
